Measured values published in ChEMBL document CHEMBL1201862, “PubChem BioAssay data set” (2004).
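Cultured in 96-well plates, cells were exposed to test compound for 48 hours across five concentrations. Abbreviation: GI50, concentration required for 50% inhibition of growth.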 Activity calls are given as the source filed them. Cut-off read from the data, not from the text of the source: active = GI50 up to about 1.1 µM and inactive = higher.

Legend:
Assay in all cases: DTP human tumour cell line panel, 48 h
786-0 = test system: 786-0
A549 = test system: A549
ACHN = test system: ACHN
COLO 205 = test system: COLO 205
MOLT-4 = test system: MOLT-4
Malme-3M = test system: Malme-3M
NCI-H226 = test system: NCI-H226
OVCAR-3 = test system: OVCAR-3
OVCAR-4 = test system: OVCAR-4
SR = test system: SR
U-251 = test system: U-251
UACC-257 = test system: UACC-257
UACC-62 = test system: UACC-62
UO-31 = test system: UO-31
HL-60 = test system: HL-60

Measured: GI50

C#CCOCn1cnc2c(N)ncnc21
inactive: 786-0 > 100 µM | A549 > 100 µM | ACHN > 100 µM | COLO 205 > 100 µM | MOLT-4 > 100 µM | Malme-3M > 100 µM | NCI-H226 > 100 µM | OVCAR-3 > 100 µM | OVCAR-4 > 100 µM | SR > 100 µM | U-251 > 100 µM | UACC-257 > 100 µM | UACC-62 > 100 µM | UO-31 > 100 µM

O=C(c1ccc([N+](=O)[O-])cc1[N+](=O)[O-])N(/N=C/C=C/c1ccccc1)c1nnc(-c2ccccc2)c(-c2ccccc2)n1
inactive: 786-0 21 µM | A549 29.4 µM | ACHN 24.3 µM | COLO 205 41.6 µM | HL-60 21.6 µM | MOLT-4 23.6 µM | Malme-3M 43.8 µM | NCI-H226 32.7 µM | OVCAR-3 21 µM | OVCAR-4 20.8 µM | U-251 40.3 µM | UACC-257 31.5 µM | UACC-62 20.6 µM | UO-31 18.5 µM

N#CC(NNC(=O)c1ccccc1O)c1ccc(O)cc1 (stereo not given)
inactive: 786-0 8.02 µM | A549 2.74 µM | ACHN 2.33 µM | COLO 205 29.2 µM | HL-60 5.32 µM | MOLT-4 4.17 µM | Malme-3M 29.6 µM | NCI-H226 3.21 µM | OVCAR-3 9.55 µM | OVCAR-4 13.1 µM | SR 2.8 µM | U-251 3.8 µM | UACC-257 15.6 µM | UACC-62 1.95 µM | UO-31 2.3 µM

COC(=O)C1=CC(=O)[C@@H]2CCCC[C@H]12
inactive: 786-0 > 100 µM | A549 > 100 µM | ACHN > 100 µM | COLO 205 > 100 µM | HL-60 > 100 µM | MOLT-4 > 100 µM | Malme-3M > 100 µM | NCI-H226 > 100 µM | OVCAR-3 > 100 µM | OVCAR-4 > 100 µM | SR > 100 µM | U-251 > 100 µM | UACC-257 > 100 µM | UACC-62 > 100 µM | UO-31 > 100 µM

O=C(CC(=O)n1nc(-c2ccccc2)c(/N=N/c2ccccc2Cl)c1-c1ccccc1)Nc1ccc(Cl)cc1
inactive: 786-0 > 52.7 µM | A549 > 54.1 µM | ACHN > 100 µM | COLO 205 > 44.5 µM | HL-60 > 42.8 µM | MOLT-4 > 100 µM | Malme-3M > 100 µM | NCI-H226 > 100 µM | OVCAR-3 > 100 µM | OVCAR-4 > 100 µM | SR > 100 µM | U-251 > 38.6 µM | UACC-257 > 83.2 µM | UACC-62 > 100 µM | UO-31 > 100 µM

Cc1ccc(C2=C(c3ccccc3)C(Br)(c3ccccc3)C(c3ccccc3)=C2c2ccc(C)cc2)cc1
inactive: 786-0 > 100 µM | A549 > 100 µM | ACHN > 100 µM | COLO 205 > 100 µM | HL-60 > 100 µM | MOLT-4 > 100 µM | Malme-3M > 100 µM | NCI-H226 > 100 µM | OVCAR-3 > 100 µM | OVCAR-4 > 100 µM | U-251 > 100 µM | UACC-257 > 100 µM | UACC-62 > 100 µM | UO-31 > 100 µM

Cc1ccccc1C(=O)c1ccccc1O
inactive: 786-0 > 100 µM | A549 > 100 µM | ACHN > 100 µM | COLO 205 > 100 µM | HL-60 > 100 µM | MOLT-4 > 100 µM | Malme-3M > 100 µM | NCI-H226 > 100 µM | OVCAR-3 > 100 µM | OVCAR-4 > 100 µM | U-251 > 100 µM | UACC-257 > 100 µM | UACC-62 > 100 µM | UO-31 24.6 µM

N#CCCC(C#N)(C#N)CCC#N
inactive: 786-0 > 100 µM | A549 > 100 µM | ACHN > 100 µM | COLO 205 > 100 µM | HL-60 > 100 µM | MOLT-4 > 100 µM | Malme-3M > 100 µM | NCI-H226 > 100 µM | OVCAR-3 > 100 µM | SR > 100 µM | U-251 > 100 µM | UACC-257 > 100 µM | UACC-62 > 100 µM | UO-31 > 100 µM

CCC1(c2c(F)c(F)c(N)c(F)c2F)CCC(=O)NC1=O (stereo not given)
inactive: 786-0 > 100 µM | A549 > 100 µM | ACHN > 100 µM | COLO 205 > 100 µM | HL-60 > 100 µM | MOLT-4 > 100 µM | Malme-3M > 100 µM | NCI-H226 > 100 µM | OVCAR-3 > 100 µM | OVCAR-4 > 100 µM | SR > 100 µM | U-251 > 100 µM | UACC-257 > 100 µM | UACC-62 > 100 µM | UO-31 > 100 µM
